Experimental data from article PMC11768481 (Pharmaceuticals, 2024).
Read-outs that look alike come from different tables or passages of the source.

Columns and labels:
Echinococcus granulosus = system: Echinococcus granulosus; set-up: method as in PMID 29190739; settings: monotherapy; cited from earlier work
[1] = system: T. cruzi Querétaro strain epimastigotes; assay: Thiol metabolites (Cys, GSH, T(SH)2) in epimastigotes by HPLC; assay type: cell-based, Trypanosoma cruzi; settings: 1 µM drug alone, 24 h
Protocol: Since thiol metabolite determination requires high amounts of biological material, the thiol determination content was performed in epimastigotes of the Queretaro strain. A 0.2 L culture of LIT medium was inoculated with epimastigotes at a density of 0.7 × 10^6 parasites/mL. The culture was incubated for 72 h at 28 °C, reaching, at the exponential growth phase, a concentration of 3 × 10^6 parasites/mL. The culture was separated into 8 aliquots of 25 mL, and 1 µM BNZ was added alone or in combination with 1 µM of the antidiabetic drugs. The cultures were incubated for 24 h at 28 °C. Subsequently, 1 mL of each sample was separated for protein determination, and the rest was used for thiol determination. Both samples were centrifuged at 20,817× g for 10 min; the pellets were washed twice with PBS. The pellets for protein were resuspended in 100 µL of Lowry’s solution A (2% Na2CO3, 0.4% NaOH, 0.16% Na-K tartrate, 1% SDS) and stored at −70 °C until protein determination using the Lowry method. The parasite pellets for thiol metabolite determination were immediately lysed by incubation in liquid nitrogen and stored at −70 °C.
Thiol determination was performed as described before. Cell lysates were thawed and resuspended in 90 µL of lysis buffer (20 mM Hepes, 1 mM EDTA, 0.15 mM KCl at pH 7), 20 mM DTT was added to each sample, and three cycles of freezing in liquid nitrogen and thawing at 37 °C were performed. The samples were centrifuged at 20,817× g for 10 min, and the supernatant was reduced with 2% sodium borohydride (NaBH4) and incubated for 10 min on ice. Then, perchloric acid was added at a final concentration of 3%, and the sample was centrifuged at 20,187× g for 2 min. The supernatant was filtered through a syringe-driven filter unit (0.45 µm) (Millipore; Carrigtwohill, County Cork, Ireland) and 20 µL of the eluate was injected in a high-performance liquid chromatography (HPLC) apparatus (Waters; Milford, MA, USA). The metabolites were separated in a C18 reverse-phase column (Altima, Columbia, MD, USA) using a mixture of acetonitrile—0.1% trifluoroacetic acid and a flux of 0.5 mL/min. The thiol metabolites were post-column derivatized with 0.1 mM di-thio-bis nitrobenzoic acid (DTNB), and the absorbance was detected at 412 nm with a UV-Vis detector coupled to the HPLC apparatus.

Leishmania = settings: alone; cited from earlier work
[2] = system: Leishmania donovani promastigotes; set-up: method as in PMID 30827222; settings: ref 23; cited from earlier work
T. cruzi epimastigotes = settings: cited from earlier work
[3] = system: T. cruzi Querétaro strain trypomastigotes; assay: In vitro infection of HFF-1 monolayers with trypomastigotes; release of trypomastigotes on the 5th day; assay type: cell-based; settings: Trypanosoma cruzi; for IC50: HFF-1, monotherapy, release of trypomastigotes, Queretaro strain, 5th day, read-out: IC50 Monotherapy T. cruzi i.v. Infection
From the text: To evaluate the effects of the antidiabetics alone, a model of in vitro infection with trypomastigotes of monolayers of human foreskin fibroblasts 1 (HFF-1) was used as described in the methodology; the criterium to determine efficacy was the ability to decrease the trypomastigotes’ release after the 4th–5th day post-infection. The T. cruzi Querétaro strain (TBAR/MX/0000/Querétaro) was used, which is classified in the Tc1 group, and is characterized by its high degree of virulence.
In 24-well tissue culture plates, 2 × 10^4 HFF-1 cells in 0.5 mL of DMEM + 10% FBS were deposited in each well and incubated at 37 °C for 24 h for adherence. Next, the incubation medium was changed to DMEM + 2% FBS (0.5 mL), and 3 × 10^5 trypomastigotes were added to infect cells for 2 h at 37 °C. After the incubation, the cells were vigorously washed three times with DMEM + 2% FBS to remove uninternalized trypomastigotes, taking care to preserve the monolayer integrity. Then, the infected cells were incubated in DMEM + 2% FBS for 4–5 days in the absence or presence of BNZ (0, 0.05, 0.1, 0.2, 0.5 µM) and antidiabetics (0, 1, 10, 25, 50 µM) in monotherapy; the drug compounds were purchased from SIGMA. For bi-therapy, the same concentrations of BNZ were used in the presence of 0.5 or 1 µM of antidiabetics. […] In every independent assay, a control of infected cells without BNZ or antidiabetics was always included, which served as no treatment. The number of released mobile trypomastigotes on the 5th day was determined by light microscopy using a Neubauer chamber.
(§1) For the IC50 calculation, individual data curves were fitted to the dose–response equation: y=A1+(A2−A1)/(1+10^(logx0−x)×p), where A1 < A2; p > 0; bottom asymptote: A1 = 1; top asymptote: A2 = 2; center: logx0 = −1; hill slope: p = 0.2; or logistic equation y=A2+(A1−A2)/(1+x/x0)^p, where A1 = initial value, A2 = final value, x0 = center and p = power using the Origin 8 Software. The IC50 values were manually selected from the curves fit.

T. cruzi Ninoa strain = assay: Short-term monotherapy in mice infected with T. cruzi; blood trypomastigote count; assay type: in vivo, CD1 mice; settings: single dose 100 mg/kg, intragastric, at peak of parasitemia, 8 h compared to time 0
Protocol: The effect of the antidiabetic drugs and BNZ in the clearance of blood trypomastigotes in mice infected with T. cruzi in acute drug treatment in monotherapy was evaluated. Trypanosoma cruzi Ninoa strain was used for these experiments; this strain is classified in the Tc1 group like the Querétaro strain [27]; Ninoa is characterized by lower virulence and therefore lower mortality in mice compared to the Querétaro strain [28]. However, epimastigotes of Ninoa strain are more resistant to BNZ [27]. Then, the T. cruzi Ninoa strain seems to be a more appropriate parasitic source to evaluate drug susceptibility in mice.
Mice of the CD1 strain were infected with Ninoa strain (MHOM/MX/1994/Ninoa) following modified protocols previously reported. Briefly, blood trypomastigotes obtained from an infected mouse were diluted with 0.9% saline solution at a density of 1 × 10^5 trypomastigotes/mL, and 0.1 mL were intraperitoneally inoculated in mice weighing 30–40 g. […] After reaching a parasitemia peak of 22 × 10^6 blood trypomastigotes/mL (12–18 days post-inoculation), the mice were separated into 5 groups of 3 mice each for drug treatment (for bioethical requirements, the number of animals used was kept at a minimum, and 3 mice per group was sufficient to perform statistical analysis). BNZ and antidiabetic drugs at a concentration of 100 mg/kg weight; doses of 3.16–3.79 mg (depending on the weight of the mice) were administered, diluted in 0.5 mL of vehicle (Arabic gum at 4%, diluted in purified water) using an intragastric tube. Then, 5 µL of blood were immediately extracted from the caudal vein (t = 0), and blood sampling was performed every 2 h up to 8 h. Trypomastigotes were counted using a modified protocol of that reported by Pizzi–Brenner, as reported before. […] The criterion for evaluating efficacy was the percentage of trypanocidal effect at 8 h compared to time 0.

[4] = set-up: method as in PMID 28673423, PMID 32592664, PMID 33043726; settings: ref 1, 7, 8; cited from earlier work
HFF-1 cells = assay: HFF-1 host cell growth after 5 days (Trypan blue exclusion count); assay type: cell-based, human; settings: for IC50: Homo sapiens, HFF-1, 120 h, monotherapy, HFF-1 growth, 5 days, read-out: IC50 Monotherapy HFF-1 (n = 3)
Protocol: For HFF-1 IC50 evaluation, BNZ and the antidiabetic were varied as described above for the infection cultures, and cell proliferation was determined on the 5th day of growth, and the viability was determined by 0.2% Trypan blue exclusion (Corning Inc.; Corning, NY, USA). Briefly, the cells were washed twice with PBS-EDTA and later trypsinized for detachment. The cell suspension was homogenized with 150 µL of DMEM + 2% FBS, and an aliquot of 50 µL was diluted 1:1 with the solution of Trypan blue. The number of viable cells was counted using a Neubauer chamber under a microscope.
as §1

[5] = ref 15, read-out: IC50 on the growth of epimastigotes

| SMILES | activity on Echinococcus granulosus infection in mice (Echinococcus granulosus) | Cys level [1] | GSH level [1] | T(SH)2 level [1] | effect on Leishmania infection (Leishmania) | growth of Leishmania donovani promastigotes [2] | IC50 (T. cruzi epimastigotes; [5]) [µM] | IC50 [3] [µM] | decrease of the infection (blood trypomastigotes) (T. cruzi Ninoa strain) | rate of treatment interruption [4] | decrease of the growth of host cells (HFF-1 cells; 0.26 µM BNZ in monotherapy) [%] | IC50 (HFF-1 cells) [µM] | IC50 (T. cruzi epimastigotes; CLBrener strain, read-out: IC50 on growth of epimastigotes) [µM] | IC50 (T. cruzi epimastigotes; Ninoa strain, read-out: IC50 on growth of epimastigotes) [µM] | IC50 (T. cruzi epimastigotes; Querétaro strain, read-out: IC50 on growth of epimastigotes) [µM] | IC50 (T. cruzi epimastigotes; ref 25, read-out: IC50 on the growth of epimastigotes) [µM] | IC50 (T. cruzi epimastigotes; ref 38, read-out: IC50 on the growth of epimastigotes) [µM] | inhibition at 0.2 µM ([3]; HFF-1, read-out: inhibition of infection) [%] | decrease in Cys [1] [%] |
| --- | --- | --- | --- | --- | --- | --- | --- | --- | --- | --- | --- | --- | --- | --- | --- | --- | --- | --- | --- |
| COc1ccc(Cl)cc1C(=O)NCCc1ccc(S(=O)(=O)NC(=O)NC2CCCCC2)cc1 [GBD, glyburide] | anti-helmintic activity | increased | decreased | decreased | decreased the infection | decreased their growth | 66 | 8.4 ± 6.3 | 60% | – | – | – | – | – | – | – | – | – | – |
| CC1CS(=O)(=O)CCN1/N=C/c1ccc([N+](=O)[O-])o1 (stereo not drawn) [nifurtimox] | – | – | – | – | – | – | – | – | – | 14–75% | – | – | – | – | – | – | – | – | – |
| O=C(Cn1ccnc1[N+](=O)[O-])NCc1ccccc1 [BNZ, benznidazole] | – | slightly decrease | – | not observed | – | – | – | 0.26 ± 0.01 | 80% | 9–29% | 20 | 0.9 ± 0.09 | 5.54 | 8.21 | 4.29 | 12 ± 2 | 9.4 ± 1.3 | 40 | – |
| COc1ccc2c(c1)C(=O)N(CCc1ccc(S(=O)(=O)NC(=O)NC3CCCCC3)cc1)C(=O)C2(C)C [GLQ, gliquidone] | – | increased | decreased | decreased | – | – | 12 | 7.6 ± 2 | lower effect than BNZ | – | – | – | – | – | – | – | – | – | – |
| Cc1cnc(C(=O)NCCc2ccc(S(=O)(=O)NC(=O)NC3CCCCC3)cc2)cn1 [GPZ, glipizide] | – | decreased | – | increased | – | – | 13.4 | 14.3 ± 7 | 60% | – | – | 35 ± 19 | – | – | – | – | – | – | ~50 |
